Like-named read-outs stand apart in the source and are kept apart here. Where a SMILES comes first, the peptide text is derived from it. Bridges are numbered along the chain shown (N, C = ends).
What was measured:
human NPR-A = biological target: T1, human NPR-A (Homo sapiens, UniProt P16066); experiment: cGMP ALPHAscreen, cGMP production in HEK 293 cells transiently overexpressing hNPR-A; format: cell-based; conditions: HEK 293 cells overexpressing hNPR-A; for Emax at 10 µM: HEK293, read-out: cGMP production, % of the maximum response (compared with DNP, hANP, hBNP); for EC50: 30 min at 37 °C, cGMP ALPHAscreen, three separate experiments in triplicate, read-out: hNPR-A EC50 (95% CI), potency to stimulate cGMP production
T1 construct: expressed in transfected cells; host or cells: HEK 293 cells, transient, Lipofectamine 2000
T1 sequence (P16066 33-1061): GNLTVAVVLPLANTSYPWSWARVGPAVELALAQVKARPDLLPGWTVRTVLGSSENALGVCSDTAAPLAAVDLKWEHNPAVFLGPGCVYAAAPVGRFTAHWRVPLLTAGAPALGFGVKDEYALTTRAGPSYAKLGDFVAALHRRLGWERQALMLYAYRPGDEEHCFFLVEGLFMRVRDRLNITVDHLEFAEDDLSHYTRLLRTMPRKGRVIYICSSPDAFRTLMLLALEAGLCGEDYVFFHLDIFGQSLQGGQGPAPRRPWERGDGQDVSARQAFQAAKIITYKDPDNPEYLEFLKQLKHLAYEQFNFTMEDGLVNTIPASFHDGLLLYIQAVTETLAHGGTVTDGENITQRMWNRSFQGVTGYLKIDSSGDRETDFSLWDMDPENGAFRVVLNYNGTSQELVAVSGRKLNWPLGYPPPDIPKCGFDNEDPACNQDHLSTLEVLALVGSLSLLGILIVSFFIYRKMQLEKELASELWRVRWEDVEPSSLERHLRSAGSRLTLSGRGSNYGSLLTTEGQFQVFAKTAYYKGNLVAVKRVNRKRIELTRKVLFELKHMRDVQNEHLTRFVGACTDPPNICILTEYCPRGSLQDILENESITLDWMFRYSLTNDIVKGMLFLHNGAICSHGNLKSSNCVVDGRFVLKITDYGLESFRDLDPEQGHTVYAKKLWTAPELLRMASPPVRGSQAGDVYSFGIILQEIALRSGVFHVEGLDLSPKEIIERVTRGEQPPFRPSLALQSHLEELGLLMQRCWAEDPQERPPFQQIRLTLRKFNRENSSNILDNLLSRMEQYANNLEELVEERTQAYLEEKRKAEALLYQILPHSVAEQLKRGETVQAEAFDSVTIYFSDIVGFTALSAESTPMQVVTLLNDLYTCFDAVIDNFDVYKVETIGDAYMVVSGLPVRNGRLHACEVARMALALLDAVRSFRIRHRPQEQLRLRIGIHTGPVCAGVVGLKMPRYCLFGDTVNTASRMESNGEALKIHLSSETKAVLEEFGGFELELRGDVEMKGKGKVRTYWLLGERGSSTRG
Protocol: (§1) Cells were cultured at 5% CO2 and 37 °C. HEK 293 cells were cultured in high glucose DMEM (Gibco, Carlsbad, CA, USA) supplemented with 10% FBS, and 1% penicillin/streptomycin. HEK 293 cells were seeded in media lacking penicillin/streptomycin 24 to 48 h pre-transfection. PC12 cells were cultured in high glucose DMEM (Gibco) supplemented with 10% FBS and 1% penicillin/streptomycin.
HEK 293 cells were transfected using the lipofectamine 2000 transfection protocol (Invitrogen). Cells (95% confluence) were transfected with 45% pcDNA3.1/hNPR-A, 45% pcDNA3.1, and 10% pEGFP-NI to the optimal DNA concentration specified in the protocol. The co-transfection with pEGFP-NI plasmid allowed the determination of the transfection efficiency. This was assessed by the estimation of the number of GFP-expressing cells using an Olympus IX70 inverted fluorescence microscope. Transfected cells were used for assay purposes within 24 h.
(§2) The cGMP ALPHAscreen was performed using the ALPHAscreen Protein A detection kit and the biotinylated cGMP supplement (Perkin Elmer, Waltham, MA, USA) with rabbit anti-cGMP polyclonal antibody (Biovision, Mountain View, CA, USA). Cells were detached from the flask and the resulting pellet was resuspended in stimulation buffer (HBSS supplemented with 0.1% w/v BSA and 1 mM IBMX at 37 °C). Cells were added to a white 384-well Optiplate (Perkin Elmer, Waltham, USA) to 30,000 cells per well for HEK 293 cells and 10,000 cells per well for PC12 cells. Cells were incubated with different concentrations of test peptides (concentration range of 1 × 10^−5 to 1 × 10^−11 M in stimulation buffer) at 37 °C for 30 min. Cells were lysed with lysis buffer (1 M HEPES, 0.3% Tween-20, 1% BSA in H2O, pH 7.4). Then 5 μL acceptor-bead mix was added to each well under subdued lighting conditions, followed by 5 μL of donor-bead mix. Plates were incubated for ~12 h, slowly shaking at room temperature. After incubation, the ALPHAscreen signal was measured using an EnVision plate reader (Perkin Elmer). The standard curve consisted of cGMP in a concentration range of 1 × 10^−6 to 1 × 10^−12 M. All data points were acquired in triplicate and were analyzed using GraphPad Prism 5.0 software (GraphPad Software, Inc., San Diego, CA, USA).

rat NPR-A = biological target: T2, rat NPR-A (Rattus norvegicus, UniProt P18910); experiment: cGMP ALPHAscreen, cGMP production in PC12 cells; format: cell-based; conditions: for EC50: PC12 cells, cGMP ALPHAscreen
T2 construct: endogenous in cells; host or cells: rat PC12 cells
T2 sequence (P18910 29-1057): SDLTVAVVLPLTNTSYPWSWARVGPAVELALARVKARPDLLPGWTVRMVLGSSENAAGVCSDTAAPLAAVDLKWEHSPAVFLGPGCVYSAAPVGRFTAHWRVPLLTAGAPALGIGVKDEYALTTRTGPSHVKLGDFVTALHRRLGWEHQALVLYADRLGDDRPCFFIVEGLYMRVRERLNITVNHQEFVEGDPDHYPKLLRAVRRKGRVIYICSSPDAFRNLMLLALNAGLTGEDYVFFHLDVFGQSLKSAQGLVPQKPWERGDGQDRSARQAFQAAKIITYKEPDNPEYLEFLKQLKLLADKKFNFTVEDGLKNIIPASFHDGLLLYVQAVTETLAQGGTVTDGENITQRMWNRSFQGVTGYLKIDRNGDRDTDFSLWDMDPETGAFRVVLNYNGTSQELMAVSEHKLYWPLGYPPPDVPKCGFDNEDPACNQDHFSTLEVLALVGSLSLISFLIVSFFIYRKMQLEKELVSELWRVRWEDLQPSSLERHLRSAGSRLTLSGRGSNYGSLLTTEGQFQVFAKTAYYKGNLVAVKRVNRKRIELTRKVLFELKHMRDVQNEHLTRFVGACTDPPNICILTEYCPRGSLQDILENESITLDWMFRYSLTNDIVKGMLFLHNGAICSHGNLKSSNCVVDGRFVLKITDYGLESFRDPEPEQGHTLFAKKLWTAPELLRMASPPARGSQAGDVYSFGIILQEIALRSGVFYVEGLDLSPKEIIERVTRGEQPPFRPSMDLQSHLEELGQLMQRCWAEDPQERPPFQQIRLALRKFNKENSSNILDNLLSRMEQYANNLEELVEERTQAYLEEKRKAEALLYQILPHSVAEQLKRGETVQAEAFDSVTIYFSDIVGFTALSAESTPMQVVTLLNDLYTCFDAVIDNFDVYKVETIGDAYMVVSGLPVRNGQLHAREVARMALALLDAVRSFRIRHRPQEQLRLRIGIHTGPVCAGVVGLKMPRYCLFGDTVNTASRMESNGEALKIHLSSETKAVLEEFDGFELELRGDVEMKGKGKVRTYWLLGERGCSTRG
Protocol: NP activity can be determined by the effectiveness of the peptide to elicit cGMP production through NPR-A. The cGMP ALPHAscreen evaluates the ability of peptides to stimulate cGMP production in cells through a non-radioactive, homogenous, proximity assay which encompasses […]. […] In order to evaluate the potency of TNPa-e at rNPR-A, TNPa-e were evaluated using the cGMP ALPHAscreen in rat PC12 cells.
as §1, §2

[1] = 30 min at 37 °C, three to five separate experiments in triplicate, read-out: rNPR-A EC50 (95% CI), potency to stimulate cGMP production

| Compound | Emax at 10 µM (human NPR-A) [%] | EC50 (human NPR-A) [µM] | EC50 (rat NPR-A; [1]) [µM] | EC50 (rat NPR-A; read-out: EC50 at rNPR-A) [µM] | selectivity / difference in potency for rNPR-A over hNPR-A (rat NPR-A; rNPR-A (PC12) versus hNPR-A (HEK 293) cGMP potency) [fold] |
| --- | --- | --- | --- | --- | --- |
| CC[C@H](C)[C@H](NC(=O)[C@H](CCCCN)NC(=O)[C@H](CO)NC(=O)[C@H](CC(=O)O)NC(=O)[C@@H](N)CO)C(=O)NCC(=O)N[C@@H](CC(=O)O)C(=O)NCC(=O)N[C@H]1CSSC[C@@H](C(=O)N[C@@H](CC(N)=O)C(=O)N[C@@H](CCCNC(=N)N)C(=O)N2CCC[C@H]2C(=O)N[C@H](C(=O)N[C@@H](CCC(N)=O)C(=O)N[C@@H](CC(N)=O)C(=O)N[C@@H](CCCNC(=N)N)C(=O)N2CCC[C@H]2C(=O)N[C@@H](CCCCN)C(=O)N[C@@H](CCCCN)C(=O)O)C(C)C)NC(=O)CNC(=O)[C@H](CC(C)C)NC(=O)CNC(=O)[C@H](CO)NC(=O)[C@H](C(C)C)NC(=O)[C@H](CO)NC(=O)CNC(=O)[C@H]([C@@H](C)CC)NC(=O)[C@H](Cc2c[nH]cn2)NC(=O)[C@H](CC(=O)O)NC(=O)[C@H](CC(C)C)NC(=O)[C@@H]2CCCN2C(=O)[C@H](CC(C)C)NC(=O)CNC(=O)[C@H](Cc2ccccc2)NC1=O [TNPa] (H-SDSKIGDGCFGLPLDHIGSVSGLGCNRPVQNRPKK-OH; disulfide 9-25) | < 20 | > 10 | 2.02 | > 1 | – |
| CC[C@H](C)[C@@H]1NC(=O)[C@H](Cc2c[nH]cn2)NC(=O)[C@H](CC(=O)O)NC(=O)[C@H](CC(C)C)NC(=O)[C@@H]2CCCN2C(=O)[C@H](CC(C)C)NC(=O)CNC(=O)[C@H](Cc2ccccc2)NC(=O)[C@@H](NC(=O)CNC(=O)[C@H](CC(=O)O)NC(=O)CNC(=O)[C@@H](NC(=O)[C@H](CCCCN)NC(=O)[C@@H]2CCCN2C(=O)[C@H](CC(=O)O)NC(=O)[C@@H](N)CO)[C@@H](C)CC)CSSC[C@@H](C(=O)N[C@@H](CC(N)=O)C(=O)N[C@@H](CCCNC(=N)N)C(=O)N2CCC[C@H]2C(=O)N[C@H](C(=O)N[C@@H](CCC(N)=O)C(=O)N[C@@H](CC(N)=O)C(=O)N[C@@H](CCCNC(=N)N)C(=O)N2CCC[C@H]2C(=O)N[C@@H](CCCCN)C(=O)N[C@@H](CCCCN)C(=O)O)C(C)C)NC(=O)CNC(=O)[C@H](CC(C)C)NC(=O)CNC(=O)[C@H](CO)NC(=O)[C@H](C(C)C)NC(=O)[C@H](CO)NC(=O)CNC1=O [TNPb] (H-SDPKIGDGCFGLPLDHIGSVSGLGCNRPVQNRPKK-OH; disulfide 9-25) | ~30 | > 10 | 1.2 | > 1 | – |
| CC[C@H](C)[C@@H]1NC(=O)[C@H](CCCNC(=N)N)NC(=O)[C@H](CC(=O)O)NC(=O)[C@H]([C@@H](C)CC)NC(=O)[C@@H]2CCCN2C(=O)[C@H](Cc2ccccc2)NC(=O)CNC(=O)[C@H](Cc2ccccc2)NC(=O)[C@@H](NC(=O)CNC(=O)[C@H](CC(N)=O)NC(=O)CNC(=O)[C@@H](NC(=O)[C@H](CCCCN)NC(=O)[C@@H]2CCCN2C(=O)[C@H](CC(=O)O)NC(=O)[C@@H](N)CO)[C@@H](C)CC)CSSC[C@@H](C(=O)N[C@@H](CC(N)=O)C(=O)N[C@@H](CCCNC(=N)N)C(=O)N[C@@H](CC(C)C)C(=O)N[C@H](C(=O)N[C@@H](CCC(N)=O)C(=O)N[C@@H](CC(N)=O)C(=O)N2CCC[C@H]2C(=O)N2CCC[C@H]2C(=O)N[C@@H](CCCCN)C(=O)N2CCC[C@H]2C(=O)N[C@H](C(=O)N[C@@H](CO)C(=O)NCC(=O)N[C@@H](CCC(=O)O)C(=O)N[C@@H](CO)C(=O)O)[C@@H](C)CC)C(C)C)NC(=O)CNC(=O)[C@H](CC(C)C)NC(=O)CNC(=O)[C@H](CO)NC(=O)[C@H](C(C)C)NC(=O)[C@H](CO)NC(=O)CNC1=O [TNPd] (H-SDPKIGNGCFGFPIDRIGSVSGLGCNRLVQNPPKPISGES-OH; disulfide 9-25) | ~30 | > 10 | 0.018 | – | 560 |
